We go through 15 compounds from ChEMBL document CHEMBL1148026, “Oxadiazole mannich bases: synthesis and antimycobacterial activity” (Bioorg Med Chem Lett, 2007).

The test system of the experiment is Mycobacterium tuberculosis. Put plainly: Antimycobacterial activity against isoniazid-resistant Mycobacterium tuberculosis by agar dilution method using double dilution technique. The experiment is classed as functional. A general note: Agar dilution tests growth on a series of plates holding different concentrations.

≈ marks a conversion by molar mass, not a printed value.

The term MIC denotes the least concentration at which growth counts as inhibited. A lower MIC goes with inhibition by little substance.

Compound `O=S(=O)(c1ccc(NC(c2ccccc2)n2nc(-c3ccc(Nc4ccccc4)cc3)oc2=S)cc1)c1ccc(NC(c2ccccc2)n2nc(-c3ccc(Nc4ccccc4)cc3)oc2=S)cc1` (stereo not given) returned an MIC of 4.65 µM (≈ 4.48 µg/mL).

Take `O=S(=O)(c1ccc(NC(c2ccccc2)n2nc(-c3ccccc3)oc2=S)cc1)c1ccc(NC(c2ccccc2)n2nc(-c3ccccc3)oc2=S)cc1` (stereo not given): the lowest concentration to inhibit growth (MIC) was 5.42 µM (≈ 4.23 µg/mL). With `O=S(=O)(c1ccc(NC(Cc2ccco2)n2nc(-c3ccccc3)oc2=S)cc1)c1ccc(NC(Cc2ccco2)n2nc(-c3ccccc3)oc2=S)cc1` (stereo not given), it took 2.24 µM (≈ 1.77 µg/mL) to inhibit growth (MIC). To `O=S(=O)(c1ccc(NC(c2ccccc2)n2nc(Cc3ccccc3)oc2=S)cc1)c1ccc(NC(c2ccccc2)n2nc(Cc3ccccc3)oc2=S)cc1` (stereo not given) belongs 5.98 µM (≈ 4.84 µg/mL); to `O=S(=O)(c1ccc(NC(Cc2ccco2)n2nc(COc3ccccc3)oc2=S)cc1)c1ccc(NC(Cc2ccco2)n2nc(COc3ccccc3)oc2=S)cc1` (stereo not given), 1.14 µM (≈ 0.968 µg/mL). The same measure for `NNC(=O)c1ccncc1` [ISONIAZID]: 11.4 µM (≈ 1.56 µg/mL); for `O=[N+]([O-])c1ccc(-c2nn(C(Nc3ccc(S(=O)(=O)c4ccc(NC(c5ccccc5)n5nc(-c6ccc([N+](=O)[O-])cc6)oc5=S)cc4)cc3)c3ccccc3)c(=S)o2)cc1` (stereo not given): 3.94 µM (≈ 3.43 µg/mL). To `O=S(=O)(c1ccc(NC(Cc2ccco2)n2nc(COc3ccc4ccccc4c3)oc2=S)cc1)c1ccc(NC(Cc2ccco2)n2nc(COc3ccc4ccccc4c3)oc2=S)cc1` (stereo not given) belongs 1.1 µM (≈ 1.04 µg/mL); to `O=S(=O)(c1ccc(NC(Cc2ccco2)n2nc(Cc3ccccc3)oc2=S)cc1)c1ccc(NC(Cc2ccco2)n2nc(Cc3ccccc3)oc2=S)cc1` (stereo not given), 3.24 µM (≈ 2.65 µg/mL); to `O=S(=O)(c1ccc(NC(Cc2ccco2)n2nc(COc3cccc4ccccc34)oc2=S)cc1)c1ccc(NC(Cc2ccco2)n2nc(COc3cccc4ccccc34)oc2=S)cc1` (stereo not given), 2.12 µM (≈ 2.01 µg/mL). `O=S(=O)(c1ccc(NC(c2ccccc2)n2nc(COc3ccccc3)oc2=S)cc1)c1ccc(NC(c2ccccc2)n2nc(COc3ccccc3)oc2=S)cc1` (stereo not given) showed an MIC of 4.98 µM (≈ 4.19 µg/mL). To `O=S(=O)(c1ccc(NC(c2ccccc2)n2nc(COc3cccc4ccccc34)oc2=S)cc1)c1ccc(NC(c2ccccc2)n2nc(COc3cccc4ccccc34)oc2=S)cc1` (stereo not given) belongs 5.96 µM (≈ 5.61 µg/mL). Compound `O=S(=O)(c1ccc(NC(Cc2ccco2)n2nc(-c3ccc(Nc4ccccc4)cc3)oc2=S)cc1)c1ccc(NC(Cc2ccco2)n2nc(-c3ccc(Nc4ccccc4)cc3)oc2=S)cc1` (stereo not given) came in with an MIC of 1.86 µM (≈ 1.81 µg/mL). Take `O=[N+]([O-])c1ccc(-c2nn(C(Cc3ccco3)Nc3ccc(S(=O)(=O)c4ccc(NC(Cc5ccco5)n5nc(-c6ccc([N+](=O)[O-])cc6)oc5=S)cc4)cc3)c(=S)o2)cc1` (stereo not given): the MIC was 1.74 µM (≈ 1.53 µg/mL). The MIC values of the last two compounds are within 1.5-fold of each other. To `O=S(=O)(c1ccc(NC(c2ccccc2)n2nc(COc3ccc4ccccc4c3)oc2=S)cc1)c1ccc(NC(c2ccccc2)n2nc(COc3ccc4ccccc4c3)oc2=S)cc1` (stereo not given) belongs 2.42 µM (≈ 2.28 µg/mL).
